Measured values published in patent US5248674A, “Percutaneous administration of 3'-azide'-deoxythymidine” (Nelson-Sumisho Co., Ltd., priority 1989, dated 1993).
Like-named read-outs stand apart in the source and are kept apart here.

Tests used:
[1] = cited from earlier work
[2] = format: in vitro ADME, rat (Wistar strain, male); conditions: rat skin; for F, AZT permeation rate: n = 3; for promotion of AZT permeation through the skin (in words): in vitro, oleic acid vs water, Azone and S-318 vs 10% oleic acid
Method: A. The abdominal skin of a rat (Wistar strain, male, 200 g) was removed after shaving and placed between the chambers of a diffusion cell comprising two chambers having an effective permeation area of 0.95 cm^2 and a capacity of 2.3 ml for each chamber. The chamber of the corneum side received an AZT solution to be tested and the other chamber received water. The cell was warmed to 37° C. while the permeation of the drug towards the opposite chamber was measured. The AZT solution contained […] (5 mg/ml) AZT either in water or an aqueous solution of 10% oleic acid. […] The results are plotted In FIG. 1. The permeation rate during the stable permeation state (Fss) was determined as follows from the slope of the plots between 10 and 24 hours:
B. In a manner similar to that described in A, further agents capable of promoting permeation of AZT were searched. The promotion rate by each of the tested agents was expressed in relative terms when the rate of 10% oleic acid is tentatively determined as 1.
C. In the similar manner as in A and B, the permeation of AZT as a function of its concentration (3.7 mM-112 mM) was studied. 112 mM (about 3%) is a preferred concentration of AZT for practical purposes in producing a percutaneous AZT composition. The combination of a) 3% Azone+20% MP or b) 5% S-318+10% OA+20% PG+10% MP was used as a permeation promoting agent.

[3] = In vivo study - plasma AZT level by percutaneous (oleic acid pretreated skin) and oral administration of AZT; set-up: species or system rat (Wistar strain, male); conditions: for concentration at 0.5 h / concentration at 1 h / concentration at 2 h / concentration at 4 h / concentration at 6 h / concentration at 8 h / concentration at 24 h: plasma
Method: Three male rates of Wistar strain weighing about 200 g was allotted to each group. The abdominal portion of the rat was shaven and pretreated with 10% oleic acid for 24 hours. Then a 1 ml aliquot of a solution containing 0.5% (18.7 mM) AZT and 10% oleic acid in water was applied over 4.9 cm^2 area of the skin by a glass cell secured on the body of the rat. AZT level in the plasma sampled at […], 2, 4, 6, 8 and 24 hours after the administration was determined by HPLC. A control group orally received 0.5 ml water containing 0.6 mg AZT.

reverse transcriptases = conditions: background statement; cited from earlier work
[4] = In vivo study - percutaneous absorption of AZT without pretreatment with 10% oleic acid; set-up: species or system rat (Wistar strain, male); conditions: no pretreatment, rat
Method: In a manner similar to that described in Example 2, the possibility of percutaneous absorption of AZT without pretreatment with 10% oleic acid was studied.
As absorption promoting agents, a) an aqueous solution containing 3% Azone and 20% MP, and b) an aqueous solution containing 5% S-318, 10% OA, 20% PG and 10% MP were prepared. AZT was dissolved at 3.7 mM concentration in each of said absorption agents and 1 ml of the resulting solution was applied to the skin of rats in a similar manner as in Example 2.

[5] = according to Klecker et al. 1987
[6] = 3.7 mM (1 mg/ml) AZT, 3% Azone + 20% MP
[7] = 3.7 mM (1 mg/ml) AZT, 5% S-318 + 10% OA + 20% PG + 10% MP
[8] = 18.7 mM (5 mg/ml) AZT, 3% Azone + 20% MP
[9] = 18.7 mM (5 mg/ml) AZT, 5% S-318 + 10% OA + 20% PG + 10% MP
[10] = 56.2 mM (15 mg/ml) AZT, 3% Azone + 20% MP
[11] = 56.2 mM (15 mg/ml) AZT, 5% S-318 + 10% OA + 20% PG + 10% MP
[12] = 112 mM (30 mg/ml) AZT, 3% Azone + 20% MP
[13] = 112 mM (30 mg/ml) AZT, 5% S-318 + 10% OA + 20% PG + 10% MP
[14] = topical or ocular, percutaneous, 1 ml 0.5% AZT + 10% oleic acid, 4.9 cm^2, rat
[15] = oral, 0.6 mg AZT in 0.5 ml water, rat

With `Cc1cn([C@H]2C[C@H](N=[N+]=[N-])[C@@H](CO)O2)c(=O)[nH]c1=O` [AZT, 3'-azide-3'-deoxythymidine] as the compound, how does the “clearance (Cltot)” value [1, 5] read?
Its value is 78 L/h.

And the “plasma AZT level required for AIDS treatment (Css)” value [1, 5]?
Its value is 1000 nM.

What about the “maintenance of an adequate AZT level in blood” value ([1]; conventional oral administration, 5 mg/kg every 4 hours, Klecker et al. 1987) of the same compound?
Its value is “impossible to maintain an adequate AZT level in blood”.

And the relative promotion rate [2, 6]?
The relative promotion rate was 6.2.

What about the “F, AZT permeation rate” value [2, 6] of the same compound?
Its value is 0.28 μmol/cm^2 /h.

And the relative promotion rate [2, 7]?
The relative promotion rate was 4.4.

What about the “F, AZT permeation rate” value [2, 7] of the same compound?
The value was 0.20 μmol/cm^2 /h.

And the relative promotion rate [2, 8]?
The relative promotion rate was 16.4.

What about the “F, AZT permeation rate” value [2, 8] of the same compound?
The value was 0.74 μmol/cm^2 /h.

And the relative promotion rate [2, 9]?
The relative promotion rate was 14.0.

And the “F, AZT permeation rate” value [2, 9]?
The value was 0.63 μmol/cm^2 /h.

And the relative promotion rate [2, 10]?
Its relative promotion rate is 49.3.

And the “F, AZT permeation rate” value [2, 10]?
Its value is 2.22 μmol/cm^2 /h.

What about the relative promotion rate [2, 11] of the same compound?
Its relative promotion rate is 53.6.

And the “F, AZT permeation rate” value [2, 11]?
The value was 2.41 μmol/cm^2 /h.

And the relative promotion rate [2, 12]?
Its relative promotion rate is 71.6.

What about the “F, AZT permeation rate” value [2, 12] of the same compound?
The value was 3.22 μmol/cm^2 /h.

What about the relative promotion rate [2, 13] of the same compound?
The relative promotion rate was 108.

And the “F, AZT permeation rate” value [2, 13]?
The value was 4.85 μmol/cm^2 /h.

And the “permeation rate during the stable permeation state (Fss)” value ([2]; 37° C, 18.7 mM (5 mg/ml) AZT in 10% oleic acid, slope between 10 and 24 hours)?
Its value is 0.045 μmol/cm^2 /h.

What about the “percutaneous absorption of AZT” value ([3]; applied to rat skin as a simple water solution (data not shown)) of the same compound?
The value was “not observed at all”.

And the “percutaneous absorption of AZT, detection in plasma” value ([3]; in the presence of oleic acid, rat)?
Its value is “could be detected in the plasma over 24 hours”.

And the “drug level in the plasma after oral administration” value ([3]; oral, 0.6 mg AZT, rat)?
Its value is “undetectable at 6 hours after the administration”.

And the concentration at 0.5 h [3, 14]?
Its concentration at 0.5 h is 200 nM.

And the concentration at 1 h [3, 14]?
The concentration at 1 h was 600 nM.

What about the concentration at 2 h [3, 14] of the same compound?
Its concentration at 2 h is 700 nM.

And the concentration at 4 h [3, 14]?
The concentration at 4 h was 1500 nM.

What about the concentration at 6 h [3, 14] of the same compound?
Its concentration at 6 h is 1500 nM.

And the concentration at 8 h [3, 14]?
The concentration at 8 h was 1500 nM.

What about the concentration at 24 h [3, 14] of the same compound?
Its concentration at 24 h is 4000 nM.

What about the concentration at 0.5 h [3, 15] of the same compound?
The concentration at 0.5 h was 3100 nM.

What about the concentration at 1 h [3, 15] of the same compound?
Its concentration at 1 h is 2500 nM.

And the concentration at 2 h [3, 15]?
Its concentration at 2 h is 500 nM.

And the concentration at 4 h [3, 15]?
Its concentration at 4 h is 200 nM.

What about the concentration at 6 h [3, 15] of the same compound?
The concentration at 6 h was less than 100 nM.

And the concentration at 8 h [3, 15]?
The concentration at 8 h was less than 100 nM.

What about the concentration at 24 h [3, 15] of the same compound?
Its concentration at 24 h is less than 100 nM.

And the “inhibition of reverse transcriptases” value (reverse transcriptases)?
Its value is “effective inhibitor of reverse transcriptases”.

What about the “AZT level in the plasma” value ([4]; 3.7 mM AZT with a) 3% Azone + 20% MP or b) 5% S-318 + 10% OA + 20% PG + 10% MP) of the same compound?
Its value is “a high AZT level in the plasma was achieved over a period of 10 hours”.

And the “efficient penetration of AZT through the skin” value ([4]; 3.7 mM AZT, promoting agent a) 3% Azone + 20% MP)?
The value was “especially remarkable”.

Which “promotion of AZT permeation through the skin (in words)” value [2] does the source give for `CCCCCCCCCCCCN1CCCCCC1=O` [Azone, 1-dodecylazacycloheptane-2-one] here?
The value was “greatly accelerated”.

With `CCCCCCCC/C=C\CCCCCCCC(=O)O` [oleic acid] as the compound, how does the “promotion of AZT permeation through the skin (in words)” value [2] read?
The value was “promoted permeation of AZT through the skin”.
